Consider eight compounds from patent US8835644B2, “Broad spectrum benzothiophene-nitrothiazolide and other antimicrobials” (University of Virginia Patent Foundation, priority 2009, dated 2014).

≈ marks a conversion by molar mass, not a printed value. Like-named read-outs stand apart in the source and are kept apart here. Marks after values point to notes of the source that are not given here.

Assay [1] has as its system PFOR (pyruvate ferredoxin oxidoreductase). Description: Direct PFOR enzyme assay. The format is biochemical. The procedure:
Representative compounds of the invention were tested in a series of assays against a series of organisms as described above. […] The organisms tested include, C. difficile, H. pylori, C. jejuni, MRSA, S. epidermidis, and E. coli. S. epidermidis and E. coli were tested in the plank and biofilm assay. A disk diffusion assay was also used for C. difficile. Direct PFOR enzyme assays were also performed. All analogues and derivatives were not tested on every organism in every type of assay (the “-” in each table means that it was not tested).

Another assay has as its system C. difficile. Kind of assay: Disk diffusion (Kirby Bower), C. difficile. The format is cell-based, Clostridium difficile. The conditions noted are these: for Disk Diff (%) C. difficile: Nitazoxanide = 100; for Disk Diffusion (%) C. difficile: zone of inhibited growth as relative ratio to the zone for NTZ. Put shortly:
(§1)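 Twofold broth microdilution from 32 μg/ml down to 0.06, in LB for E. coli, Trypticase Soy for S. epidermidis (planktonic) and Brain Heart Infusion for C. jejuni. C. difficile: anaerobic disk diffusion on Wilkins Chalgrin agar, inhibition zone expressed as a ratio to the NTZ zone.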
(In general: Agar diffusion results depend on both activity and mobility in agar.)

For the next assay, the system named is C. jejuni. Kind of assay: MIC testing by broth dilution, C. jejuni. The class given is cell-based, Campylobacter jejuni. Put shortly: as §1
In general terms: Broth dilution looks for growth in wells or tubes with falling amounts of substance.

In a further assay the test system is H. pylori. Kind of assay: MIC testing by broth dilution, H. pylori. The class given is cell-based, Helicobacter pylori. In a few lines: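 Broth dilution MIC determination against H. pylori: a standard inoculum in 100 microliters of Brain Heart Infusion medium was placed in 96 well microplates. Test compounds began at 32 μg/ml in 200 microliters in well one and were serially diluted over a 32 to 0.06 range. After 24 h, plates were scored by eye and the first well without growth was recorded as the MIC.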

Another assay relates to MRSA. Description: MIC testing by broth dilution, MRSA. The class given is cell-based, Staphylococcus aureus. In a few lines:
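Values are broth-dilution MICs, defined as the well showing no growth on visual reading after 24 h; the tested range was 32 to 0.06 μg/ml, in organism-specific media (LB, Trypticase Soy, Brain Heart Infusion). The C. difficile entries come instead from anaerobic Kirby-Bauer disk zones, normalised to NTZ.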

A further assay relates to S. epidermidis. Description: MIC testing by broth dilution, S. epidermidis plank. The class given is cell-based, Staphylococcus epidermidis. Put shortly: as §1
The subject of another assay is E. coli. Kind of assay: MIC testing by broth dilution, E. coli plank. The class given is cell-based, Escherichia coli. In a few lines: as §1
Where [2] appears, read: broth dilution, Brain Heart Infusion, 24 h, read-out: MIC (μM) C. jejuni.
Where [3] appears, read: broth dilution, Brain Heart Infusion, 24 h, read-out: MIC (μM) H. pylori.
Where [4] appears, read: broth dilution, Trypticase Soy, 24 h, read-out: MIC (μM) MRSA.
The mark [5] stands for this setting: broth dilution, Trypticase Soy, 24 h, read-out: MIC (μM) S. epidermidis Plank.
Where [6] appears, read: broth dilution, LB medium, 24 h, read-out: MIC (μM) E. coli Plank.
[7] abbreviates: Campylobacter jejuni, 24 h, read-out: MIC (μM) C. jejuni.
[8] abbreviates: Helicobacter pylori, 24 h, read-out: MIC (μM) H. pylori.
[9] abbreviates: Escherichia coli, 24 h, read-out: MIC (μM) E. coli Plank.
[10] abbreviates: * biphasic initial inhibition followed by uninhibited rate, ** caused some precipitant in extract.
Where [11] appears, read: 2-amino-3,5-dinitrothiophene analogues table, read-out: MIC C. jejuni.
The mark [12] stands for this setting: 2-amino-3,5-dinitrothiophene analogues table, read-out: MIC H. pylori.
Setting [13] is: 2-amino-3,5-dinitrothiophene analogues table, read-out: MIC MRSA.
Setting [14] is: planktonic, 2-amino-3,5-dinitrothiophene analogues table, read-out: MIC S. epidermidis Plank.

With `O=C(Nc1ncc([N+](=O)[O-])s1)c1ccsc1` [VPC16a1008], the “PFOR inhibition relative to nitazoxanide (=100)” value in assay [1] (Thiophene analogues table) is 96%. Moreover, the “Disk Diff (%) C. difficile” value in the assay on C. difficile (Thiophene analogues table) was determined as 100%. The MIC in the assay with C. jejuni (Thiophene analogues table, read-out: MIC C. jejuni) is reported as 5.9 µM (≈ 1.51 µg/mL); in the assay on H. pylori (Thiophene analogues table, read-out: MIC H. pylori), 0.7 µM (≈ 0.179 µg/mL); in the assay on MRSA (Thiophene analogues table, read-out: MIC MRSA) it was 23.5 µM (≈ 6 µg/mL); in the assay on S. epidermidis (planktonic, Thiophene analogues table, read-out: MIC S. epidermidis Plank), 15.7 µM (≈ 4.01 µg/mL); in the assay with E. coli (planktonic, Thiophene analogues table, read-out: MIC E. coli Plank), 125.4 µM (≈ 32 µg/mL).
Take `O=C(Nc1ncc([N+](=O)[O-])s1)c1cc(C(F)(F)F)cc(C(F)(F)F)c1` [VPC16a1039]: the “PFOR inhibition relative to nitazoxanide (=100)” value in assay [1] is on record as 54* %. For the same compound, the “Disk Diffusion (%) C. difficile” value in the assay with C. difficile is 80%. The MIC in the assay with C. jejuni (setting [2]) is 41.5 µM (≈ 16 µg/mL); in the assay on H. pylori (setting [3]), 5.2 µM (≈ 2 µg/mL); with MRSA (setting [4]), 2.6 µM (≈ 1 µg/mL); in the assay with S. epidermidis (setting [5]), 1.9 µM (≈ 0.732 µg/mL); in the assay on E. coli (setting [6]) it was 83.1 µM (≈ 32 µg/mL).
On to `O=C(Nc1ncc([N+](=O)[O-])s1)c1cc(C(F)(F)F)ccc1Cl` [VPC16a1040], for which the “PFOR inhibition relative to nitazoxanide (=100)” value in assay [1] is 68%. Also, the “Disk Diffusion (%) C. difficile” value in the assay with C. difficile was determined as 90%. Moreover, the MIC with C. jejuni (setting [2]) was found to be 17.1 µM (≈ 6.01 µg/mL); with H. pylori (setting [3]), 1.1 µM (≈ 0.387 µg/mL); in the assay with MRSA (setting [4]), 22.7 µM (≈ 7.98 µg/mL); in the assay with S. epidermidis (setting [5]) it was 22.7 µM (≈ 7.98 µg/mL); with E. coli (setting [6]) it was 91.0 µM (≈ 32 µg/mL).
Regarding `O=C(Nc1ncc([N+](=O)[O-])s1)c1cccnc1F` [VPC16a1052, 2-Fluoro-N-(5-nitrothiazol-2-yl)nicotinamide], the “PFOR inhibition relative to nitazoxanide (=100)” value in assay [1] was determined as 91%. For the same compound, the “Disk Diffusion (%) C. difficile” value in the assay on C. difficile was found to be 100%. Moreover, the values for the MIC in the assay on C. jejuni (setting [7]), in the assay with H. pylori (setting [8]) and in the assay on E. coli (setting [9]) were 7.5 µM (≈ 2.01 µg/mL), 3.7 µM (≈ 0.992 µg/mL) and 119 µM (≈ 32 µg/mL), respectively.
On to `O=C(Nc1ncc([N+](=O)[O-])s1)c1ccc(Cl)c(C(F)(F)F)c1` [VPC16a1060], for which, in assay [1], the “PFOR inhibition relative to nitazoxanide (=100)” value is given as 63* %. In addition, the “Disk Diffusion (%) C. difficile” value with C. difficile is given as 89%. Besides, the results for the MIC in the assay on C. jejuni (setting [7]), in the assay with H. pylori (setting [8]) and in the assay with E. coli (setting [9]) were 2.8 µM (≈ 0.985 µg/mL), 2.8 µM (≈ 0.985 µg/mL) and 91 µM (≈ 32 µg/mL), respectively.
For `O=C(Nc1ncc([N+](=O)[O-])s1)c1ccc(-c2ccc(F)cc2)o1` [VPC16a1104], the “PFOR inhibition relative to nitazoxanide (=100)” value in assay [1] (Furan analogues table) is listed as 81%. Further, the MIC in the assay on C. jejuni (Furan analogues table, read-out: MIC C. jejuni) came out at 96.0 µM (≈ 32 µg/mL); in the assay with H. pylori (Furan analogues table, read-out: MIC H. pylori), 1.0 µM (≈ 0.333 µg/mL); with MRSA (Furan analogues table, read-out: MIC MRSA), 96.0 µM (≈ 32 µg/mL); in the assay on S. epidermidis (planktonic, Furan analogues table, read-out: MIC S. epidermidis Plank), 96.0 µM (≈ 32 µg/mL).
Regarding `O=C(Nc1sc([N+](=O)[O-])cc1[N+](=O)[O-])c1ccccc1` [VPC16b1090], the “PFOR inhibition relative to nitazoxanide (=100)” value in assay [1] (setting [10]) was 100** %. Further, in the assay on C. difficile (2-amino-3,5-dinitrothiophene analogues table), the “Disk Diff (%) C. difficile” value was 0%. Besides, the MIC stood at 0.9 µM (≈ 0.264 µg/mL) in the assay with C. jejuni (setting [11]); 1.3 µM (≈ 0.381 µg/mL) in the assay on H. pylori (setting [12]); 109.1 µM (≈ 32 µg/mL) with MRSA (setting [13]); 5.1 µM (≈ 1.5 µg/mL) in the assay with S. epidermidis (setting [14]); 109.1 µM (≈ 32 µg/mL) in the assay with E. coli (planktonic, 2-amino-3,5-dinitrothiophene analogues table, read-out: MIC E. coli Plank).
In the case of `O=C(Nc1sc([N+](=O)[O-])cc1[N+](=O)[O-])c1ccc(Br)o1` [VPC16b2023], the “PFOR inhibition relative to nitazoxanide (=100)” value in assay [1] (setting [10]) is listed as 94** %. Besides, the MIC was 2.8 µM (≈ 1.01 µg/mL) in the assay on C. jejuni (setting [11]), 2.1 µM (≈ 0.76 µg/mL) in the assay on H. pylori (setting [12]), 33.1 µM (≈ 12 µg/mL) with MRSA (setting [13]) and 88.4 µM (≈ 32 µg/mL) with S. epidermidis (setting [14]).

What is called MIC is the lowest concentration found to suppress growth.
